Data: patent US20120270929A1, “MODULATION OF TTC39 EXPRESSION TO INCREASE HDL” (ISIS Pharmaceuticals, Inc., priority 2009, published 2012)
Oligonucleotides are written 5' to 3', each unit as a sugar letter and its base; * is a phosphorothioate linkage, no mark a phosphodiester; rarer units and linkages stand in square brackets, end groups in braces. Plain capitals give the bases only. e = 2'-O-(2-methoxyethyl) (MOE); [5mC] = 5-methylcytosine; d = 2'-deoxy (DNA)

Key:
Assay type in all cases: cell-based
[1] = test system: murine TTC39C mRNA; test: Antisense inhibition of mouse TTC39C in mouse primary hepatocytes, single dose; settings: 8,000 nM antisense oligonucleotide, electroporation, approximately 24 hours, TTC39C mRNA by real-time PCR (RTS3266), relative to untreated control cells
Protocol: Antisense oligonucleotides were designed targeting a TTC39C nucleic acid and were tested for their effects on TTC39C mRNA in vitro. Cultured mouse primary hepatocytes at a density of 30,000 cells per well were transfected by electroporation with 8,000 nM antisense oligonucleotide. After a treatment period of approximately 24 hours, RNA was isolated from the cells and TTC39C mRNA levels were measured by quantitative real-time PCR. Mouse primer probe set RTS3266 (forward sequence […], designated herein as SEQ ID NO: 140; reverse sequence […], designated herein as SEQ ID NO: 141; probe sequence […], designated herein as SEQ ID NO: 142). TTC39C mRNA levels were adjusted according to total RNA content, as measured by RIBOGREEN®. Results are presented as percent inhibition of TTC39C, relative to untreated control cells.
The chimeric antisense oligonucleotides targeting TTC39C were designed as 5-10-5 MOE gapmers. The gapmers are 20 nucleotides in length, wherein the central gap segment is comprised of ten 2′-deoxynucleotides and is flanked on both sides (in the 5′ and 3′ directions) by wings comprising five nucleotides each. Each nucleotide in the 5′ wing segment and each nucleotide in the 3′ wing segment has a 2′-MOE modification. The internucleoside linkages throughout each gapmer are phosphorothioate (P═S) linkages. All cytosine residues throughout each gapmer are 5-methylcytosines. “Mouse Target start site” indicates the 5′-most nucleotide to which the gapmer is targeted in the mouse gene sequence.

[2] = test system: murine TTC39C mRNA; test: Dose-dependent antisense inhibition of murine TTC39C in mouse primary hepatocytes; settings: electroporation, ~16 h; for IC50: mouse primary hepatocytes
Protocol: Thirty antisense oligonucleotides were selected from the study described in Example 8 and further tested at various doses in mouse primary hepatocytes. Cells were plated at a density of 30,000 cells per well and transfected using electroporation with 500 nM, 1,000 nM, 2,000 nM, 4,000 nM, and 8,000 nM concentrations of antisense oligonucleotide, as specified in Table 30. After a treatment period of approximately 16 hours, RNA was isolated from the cells and TTC39C mRNA levels were measured by quantitative real-time PCR. Murine primer probe set RTS3266 was used to measure mRNA levels. TTC39C mRNA levels were adjusted according to total RNA content, as measured by RIBOGREEN®. Results are presented as percent inhibition of TTC39C, relative to untreated control cells.

[3] = test system: murine TTC39B mRNA; test: Antisense inhibition of murine TTC39B in mouse primary hepatocytes, single dose; settings: 100 nM, cytofectin, ~24 h, vs untreated control
Protocol: Antisense oligonucleotides targeted to a TTC39B nucleic acid were tested for their effects on TTC39B mRNA in vitro. Cultured mouse primary hepatocytes at a density of 10,000 cells per well were transfected using cytofectin reagent with 100 nM antisense oligonucleotide. After a treatment period of approximately 24 hours, RNA was isolated from the cells and TTC39B mRNA levels were measured by quantitative real-time PCR. TTC39B mRNA levels were adjusted according to total RNA content, as measured by RIBOGREEN®. Results are presented as percent inhibition of TTC39B, relative to untreated control cells.
The chimeric antisense oligonucleotides in Tables 1 and 2 were designed as 5-10-5 MOE gapmers. The gapmers are 20 nucleotides in length, wherein the central gap segment is comprised of 10 2′-deoxynucleotides and is flanked on both sides (in the 5′ and 3′ directions) by wings comprising 5 nucleotides each. Each nucleotide in the 5′ wing segment and each nucleotide in the 3′ wing segment has a 2′-MOE modification. The internucleoside linkages throughout each gapmer are phosphorothioate (P═S) linkages. All cytosine residues throughout each gapmer are 5-methylcytosines. “Target start site” indicates the 5′-most nucleotide to which the gapmer is targeted. “Target stop site” indicates the 3′-most nucleotide to which the gapmer is targeted. Each gapmer listed in Table 1 is targeted to SEQ ID NO: 6 (GENBANK Accession No. NM_027238.2) and each gapmer listed in Table 2 is targeted to SEQ ID NO: 10 (the complement of GENBANK Accession No. NT—039260.7 truncated at nucleotides 22491001 to 22601000), SEQ ID NO: 11 (GENBANK Accession No. BY244623.1), SEQ ID NO: 12 (GENBANK Accession No. BY260936), SEQ ID NO: 13 (GENBANK Accession No. BM935568.1) or SEQ ID NO: 14 (GENBANK Accession No. BY728780.1).

[4] = test system: murine TTC39B mRNA; test: Dose-dependent antisense inhibition of murine TTC39B in mouse primary hepatocytes (Example 2); settings: cytofectin, ~16 h
Protocol: Cells were plated at a density of 10,000 cells per well and transfected using cytofectin reagent with 25 nM, 50 nM, 100 nM, and 200 nM concentrations of antisense oligonucleotide, as specified in Table 3. After a treatment period of approximately 16 hours, RNA was isolated from the cells and TTC39B mRNA levels were measured by quantitative real-time PCR. Murine primer probe set mTtc39b_LTS00287 (forward sequence: […], incorporated herein as SEQ ID NO: 94; reverse sequence: […], incorporated herein as SEQ ID NO: 95; probe sequence: […], incorporated herein as SEQ ID NO: 96) was used to measure mRNA levels. TTC39B mRNA levels were adjusted according to total RNA content, as measured by RIBOGREEN®. Results are presented as percent inhibition of TTC39B, relative to untreated control cells.

[5] = gapmers targeted to SEQ ID NO: 6

| Substance | % inhibition [1] [%] | percent inhibition of TTC39C mRNA ([2]; 500.0 nM) [%] | percent inhibition of TTC39C mRNA ([2]; 1000.0 nM) [%] | percent inhibition of TTC39C mRNA ([2]; 2000.0 nM) [%] | percent inhibition of TTC39C mRNA ([2]; 4000.0 nM) [%] | percent inhibition of TTC39C mRNA ([2]; 8000.0 nM) [%] | IC50 [2] [nM] | % inhibition of murine TTC39B mRNA [3, 5] [%] | percent inhibition of TTC39B mRNA ([4]; 25 nM) [%] | percent inhibition of TTC39B mRNA ([4]; 50 nM) [%] | percent inhibition of TTC39B mRNA ([4]; 100 nM) [%] | percent inhibition of TTC39B mRNA ([4]; 200 nM) [%] | % inhibition of murine TTC39B mRNA ([3]; gapmers targeted to SEQ ID NO: 10-14) [%] |
| --- | --- | --- | --- | --- | --- | --- | --- | --- | --- | --- | --- | --- | --- |
| ISIS 474604: 5-10-5 MOE gapmer antisense oligonucleotide targeting murine TTC39C (antisense eT*eG*eT*e[5mC]*eA*d[5mC]*dT*dG*d[5mC]*d[5mC]*dG*dT*d[5mC]*d[5mC]*dA*eA*eA*eG*e[5mC]*eA) | 97 | 43 | 70 | 84 | 88 | 96 | 500 | – | – | – | – | – | – |
| ISIS 474601: 5-10-5 MOE gapmer antisense oligonucleotide targeting murine TTC39C (antisense eG*eG*e[5mC]*e[5mC]*eA*dT*dA*dT*d[5mC]*d[5mC]*dA*dA*dA*dG*d[5mC]*eT*e[5mC]*eA*e[5mC]*eA) | 91 | 36 | 49 | 65 | 87 | 92 | 1000 | – | – | – | – | – | – |
| ISIS 474538: 5-10-5 MOE gapmer antisense oligonucleotide targeting murine TTC39C (antisense eT*eA*eG*e[5mC]*eA*d[5mC]*dG*d[5mC]*dA*dT*dA*dT*dG*dG*d[5mC]*eG*eG*eG*eA*e[5mC]) | 96 | 51 | 58 | 82 | 88 | 92 | 400 | – | – | – | – | – | – |
| ISIS 474521: 5-10-5 MOE gapmer antisense oligonucleotide targeting murine TTC39C (antisense eG*eG*e[5mC]*eT*eT*dT*d[5mC]*d[5mC]*dT*dA*dA*dG*dG*dA*dT*e[5mC]*e[5mC]*eA*e[5mC]*e[5mC]) | 97 | 46 | 63 | 84 | 92 | 97 | 500 | – | – | – | – | – | – |
| ISIS 474595: 5-10-5 MOE gapmer antisense oligonucleotide targeting murine TTC39C (antisense eG*eT*e[5mC]*eA*eT*d[5mC]*dG*d[5mC]*dA*d[5mC]*dG*d[5mC]*d[5mC]*dA*dA*e[5mC]*eT*eG*e[5mC]*eA) | 97 | 80 | 87 | 95 | 98 | 98 | – | – | – | – | – | – | – |
| GGAGGTCCCCTGGCCACGGC (antisense eG*eG*eA*eG*eG*dT*d[5mC]*d[5mC]*d[5mC]*d[5mC]*dT*dG*dG*d[5mC]*d[5mC]*eA*e[5mC]*eG*eG*e[5mC]) [ISIS 447151] | – | – | – | – | – | – | – | 65 | 39 | 56 | 76 | 85 | – |
| GTTGCCTTGGACCATTTACT (antisense eG*eT*eT*eG*e[5mC]*d[5mC]*dT*dT*dG*dG*dA*d[5mC]*d[5mC]*dA*dT*eT*eT*eA*e[5mC]*eT) [ISIS 447122] | – | – | – | – | – | – | – | 67 | 35 | 61 | 78 | 88 | – |
| GAGATCAGTTTCTGATGAAA (antisense eG*eA*eG*eA*eT*d[5mC]*dA*dG*dT*dT*dT*d[5mC]*dT*dG*dA*eT*eG*eA*eA*eA) [ISIS 447169] | – | – | – | – | – | – | – | – | 17 | 43 | 65 | 81 | 67 |
| GGCACTCTTTATATATTTGG (antisense eG*eG*e[5mC]*eA*e[5mC]*dT*d[5mC]*dT*dT*dT*dA*dT*dA*dT*dA*eT*eT*eT*eG*eG) [ISIS 447111] | – | – | – | – | – | – | – | 71 | 30 | 60 | 77 | 87 | – |
| GCTCAGCTTGCAAGGGCCGC (antisense eG*e[5mC]*eT*e[5mC]*eA*dG*d[5mC]*dT*dT*dG*d[5mC]*dA*dA*dG*dG*eG*e[5mC]*e[5mC]*eG*e[5mC]) [ISIS 447127] | – | – | – | – | – | – | – | 65 | 40 | 62 | 84 | 90 | – |
| ATGCCATTCTGGATGTCCTG (antisense eA*eT*eG*e[5mC]*e[5mC]*dA*dT*dT*d[5mC]*dT*dG*dG*dA*dT*dG*eT*e[5mC]*e[5mC]*eT*eG) [ISIS 447106] | – | – | – | – | – | – | – | 70 | 41 | 55 | 78 | 87 | – |
| AATGCCACCACCTTCAACCA (antisense eA*eA*eT*eG*e[5mC]*d[5mC]*dA*d[5mC]*d[5mC]*dA*d[5mC]*d[5mC]*dT*dT*d[5mC]*eA*eA*e[5mC]*e[5mC]*eA) [ISIS 447138] | – | – | – | – | – | – | – | 65 | 20 | 49 | 68 | 86 | – |
| TGAATGCTATTATTGGATCT (antisense eT*eG*eA*eA*eT*dG*d[5mC]*dT*dA*dT*dT*dA*dT*dT*dG*eG*eA*eT*e[5mC]*eT) [ISIS 447140] | – | – | – | – | – | – | – | 66 | 29 | 55 | 77 | 80 | – |
| GCCAATCTAAAAATGGCTCA (antisense eG*e[5mC]*e[5mC]*eA*eA*dT*d[5mC]*dT*dA*dA*dA*dA*dA*dT*dG*eG*e[5mC]*eT*e[5mC]*eA) [ISIS 447135] | – | – | – | – | – | – | – | 67 | 35 | 52 | 66 | 76 | – |
